Experimental data taken from ChEMBL document CHEMBL5252577, “Amphiphilic Polyamine α-Synuclein Aggregation Inhibitors from the Sponge Aaptos lobata” (J Nat Prod, 2023).
Values after ≈ are worked out from the molar mass of the structure shown.

How the values were obtained:
Staphylococcus aureus [1] = test: Antibacterial activity against methicillin-sensitive Staphylococcus aureus ATCC 25923 assessed as bacterial growth inhibition resazurin dye based microplate analysis; assay type: functional
Staphylococcus aureus [2] = test: Antibacterial activity against methicillin-resistant Staphylococcus aureus ATCC 43300 assessed as bacterial growth inhibition resazurin dye based microplate analysis; assay type: functional
Pseudomonas aeruginosa = test: Antibacterial activity against Pseudomonas aeruginosa ATCC 27853 assessed as bacterial growth inhibition resazurin dye based microplate analysis; assay type: functional
PC-3 = test: Cytotoxicity against human PC-3 cells assessed as reduction in cell viability measured for 48 hrs by resazurin dye based assay; assay type: functional; details: PC-3, 48 h
[3] = Cytotoxicity against human WPMY-1 cells assessed as reduction in cell viability measured for 48 hrs by resazurin dye based assay; assay type: toxicity

SMILES	MIC90 (Staphylococcus aureus [1])	MIC90 (Staphylococcus aureus [2])	MIC90 (Pseudomonas aeruginosa)	IC50 (PC-3)	IC50 at 48 h [3]
CCCCCCCCCC(=O)N(C)CCCNCCCNCCCNCCCCNCCCNCCCNCCCN(C)C(=O)CCCCCCC(C)C	8 µg/mL (≈ 10.4 µM)	16 µg/mL (≈ 20.9 µM)	32 µg/mL (≈ 41.7 µM)	3.4 µM	4.3 µM
NC[C@H]1O[C@H](O[C@H]2[C@H](O)[C@@H](O[C@H]3O[C@H](CO)[C@@H](O)[C@H](N)[C@H]3O)[C@H](N)C[C@@H]2N)[C@H](N)C[C@@H]1O [TOBRAMYCIN]			1 µg/mL (≈ 2.14 µM)		
CC(=O)O[C@H]1C[C@@]2(C)[C@@H](C[C@@H](O)[C@H]3[C@@]4(C)CC[C@@H](O)[C@@H](C)[C@@H]4CC[C@@]32C)/C1=C(\CCC=C(C)C)C(=O)O [FUSIDIC ACID]		0.25 µg/mL (≈ 0.484 µM)			
CC[C@H]1OC(=O)[C@H](C)[C@@H](O[C@H]2C[C@@](C)(OC)[C@@H](O)[C@H](C)O2)[C@H](C)[C@@H](O[C@@H]2O[C@H](C)C[C@H](N(C)C)[C@H]2O)[C@](C)(O)C[C@@H](C)C(=O)[C@H](C)[C@@H](O)[C@]1(C)O [ERYTHROMYCIN]	2 µg/mL (≈ 2.73 µM)				
CCCCCCCCCC(=O)N(C)CCCNCCCNCCCNCCCCNCCCNCCCNCCCN(C)C(=O)CCCCCCCC(C)C	32 µg/mL (≈ 41 µM)	32 µg/mL (≈ 41 µM)	64 µg/mL (≈ 81.9 µM)	4.1 µM	4.1 µM
COc1cccc2c1C(=O)c1c(O)c3c(c(O)c1C2=O)C[C@@](O)(C(=O)CO)C[C@@H]3O[C@H]1C[C@H](N)[C@H](O)[C@H](C)O1 [DOXORUBICIN]				0.6 µM	0.7 µM
